Measurements: patent US7812021B2, “Pyrrolidine aryl-ether as NK3 receptor antagonists” (Hoffmann-La Roche Inc., priority 2007, dated 2010)

System: not given
Assay: not given
Settings: phase II trial; altered behaviour, delusion, hallucinations, extreme emotions, excited motor activity, incoherent speech; cited from earlier work

Compound	activity on positive symptoms of schizophrenia
CC(=O)N(C)C1(c2ccccc2)CCN(CCC[C@]2(c3ccc(Cl)c(Cl)c3)CCCN(C(=O)c3ccccc3)C2)CC1 [SR 142,801, Osanetant]	active

Same assay, conditions: phase II trial; depression, anhedonia, social isolation, memory and attention deficits; cited from earlier work

Compound	activity in the treatment of negative symptoms of schizophrenia
CC(=O)N(C)C1(c2ccccc2)CCN(CCC[C@]2(c3ccc(Cl)c(Cl)c3)CCCN(C(=O)c3ccccc3)C2)CC1 [SR 142,801, Osanetant]	inactive

Biological target: T1, recombinant human NK3 receptor (Homo sapiens, UniProt P29371)
T1 construct: expressed in transfected cells; host or cells: HEK293 cells, transient expression; membranes
T1 sequence (P29371 1-465): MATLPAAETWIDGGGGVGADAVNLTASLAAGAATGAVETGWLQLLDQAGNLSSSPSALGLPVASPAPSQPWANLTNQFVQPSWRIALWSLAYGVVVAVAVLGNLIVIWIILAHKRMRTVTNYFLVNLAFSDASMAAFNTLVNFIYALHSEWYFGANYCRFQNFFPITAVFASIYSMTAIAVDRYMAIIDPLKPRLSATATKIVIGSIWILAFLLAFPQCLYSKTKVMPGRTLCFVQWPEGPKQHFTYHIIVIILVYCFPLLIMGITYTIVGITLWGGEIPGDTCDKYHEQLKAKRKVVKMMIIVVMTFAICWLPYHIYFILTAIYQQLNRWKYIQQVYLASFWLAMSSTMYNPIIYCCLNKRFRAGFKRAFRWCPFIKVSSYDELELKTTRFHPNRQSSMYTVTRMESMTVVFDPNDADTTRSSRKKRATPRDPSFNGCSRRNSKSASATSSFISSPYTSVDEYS
Assay: [3H]SR142801 competition binding assay
Settings: membranes from HEK293 cells transiently expressing recombinant human NK3 receptor; [3H]SR142801 radioligand; Ki by Cheng-Prussoff
Protocol: [^3H]SR142801 Competition Binding Assay
hNK3 receptor binding experiment were performed using [^3H]SR142801 (Catalog No. TRK1035, specific activity: 74.0 Ci/mmol, Amersham, GE Healthcare UK limited, Buckinghamshire, UK) and membrane isolated from HEK293 cells transiently expressing recombinant human NK3 receptor. After thawing, the membrane homogenates were centrifuged at 48,000×g for 10 min at 4° C., the pellets were resuspended in the 50 mM Tris-HCl, 4 mM MnCl2, 1 μM phosphoramidon, 0.1% BSA binding buffer at pH 7.4 to a final assay concentration of 5 μg protein/well. For inhibition experiments, membranes were incubated with [^3H]SR142801 at a concentration equal to KD value of radioligand and 10 concentrations of the inhibitory compound (0.0003-10 μM) (in a total reaction volume of 500 μl) for 75 min at room temperature (RT). At the end of the incubation, membranes were filtered onto unit filter (96-well white microplate with bonded GF/C filter preincubated 1 h in 0.3% PEI+0.3% BSA, Packard BioScience, Meriden, Conn.) with a Filtermate 196 harvester (Packard BioScience) and washed 4 times with ice-cold 50 mM Tris-HCl, pH 7.4 buffer. Nonspecific binding was measured in the presence of 10 μM SB222200 for both radioligands. The radioactivity on the filter was counted (5 min) on a Packard Top-count microplate scintillation counter with quenching correction after addition of 45 μl of microscint 40 (Canberra Packard S. A., Zürich, Switzerland) and shaking for 1 h. Inhibition curves were fitted according to the Hill equation: y=100/(1+(x/IC50)^nH), where nH=slope factor using Excel-fit 4 software (Microsoft). IC50 values were derived from the inhibition curve and the affinity constant (Ki) values were calculated using the Cheng-Prussoff equation Ki=IC50/(1+[L]/KD) where [L] is the concentration of radioligand and KD is its dissociation constant at the receptor, derived from the saturation isotherm. All experiments were performed in duplicate and the mean±standard error (SEM) of the individual Ki values was calculated.

Compound	Ki
C[C@H](Oc1ccc(Cl)cc1)[C@@H]1CN(C(=O)N2CCN(S(C)(=O)=O)CC2)C[C@H]1c1ccc(Cl)c(Cl)c1 (racemic) [Example 48, [(3SR,4RS)-3-[(SR)-1-(4-Chloro-phenoxy)-ethyl]-4 (3,4-dichloro-phenyl)-pyrrolidin-1-yl]-(4-methanesulfonyl-piperazin-1-yl)-methanone]	68 nM
C[C@@H](Oc1ncc(F)cn1)[C@@H]1CN(C(=O)N2CCN(S(C)(=O)=O)CC2)C[C@H]1c1ccc(Cl)c(Cl)c1 (racemic) [Example 51, {(3RS,4SR)-3-(3,4-Dichloro-phenyl)-4-[(RS)-1-(5-fluoro-pyrimidin-2-yloxy)-ethyl]-pyrrolidin-1-yl}-(4-methanesulfonyl-piperazin-1-yl)-methanone]	23.7 nM
C[C@@H](Oc1ccc(C(F)(F)F)cc1)[C@@H]1CN(C(=O)N2CCN(CCN(C)C)CC2)C[C@H]1c1ccc(Cl)c(Cl)c1 (racemic) [Example 52]	42.5 nM
C[C@@H](Oc1ncc(Cl)cn1)[C@@H]1CN(C(=O)N2CCN(S(C)(=O)=O)CC2)C[C@H]1c1ccc(Cl)c(Cl)c1 (racemic) [Example 53, [(3SR,4RS)-3-[(RS)-1-(5-Chloro-pyrimidin-2-yloxy)-ethyl]-4-(3,4-dichloro-phenyl)-pyrrolidin-1-yl]-(4-methanesulfonyl-piperazin-1-yl)-methanone]	6.8 nM
C[C@@H](Oc1ccc(Cl)cn1)[C@@H]1CN(C(=O)CCCCN2CCOCC2)C[C@H]1c1ccc(Cl)c(Cl)c1 (racemic) [Example 55, 1-[(3SR,4RS)-3-[(RS)-1-(5-Chloro-pyridin-2-yloxy)-ethyl]-4-(3,4-dichloro-phenyl)-pyrrolidin-1-yl]-5-morpholin-4-yl-pentan-1-one]	20 nM
C[C@H](Oc1ccc(F)cn1)[C@@H]1CN(C(=O)N2CCN(S(C)(=O)=O)CC2)C[C@H]1c1ccc(Cl)c(Cl)c1 (racemic) [Example 57, {(3RS,4SR)-3-(3,4-Dichloro-phenyl)-4-[(SR)-1-(5-fluoro-pyridin-2-yloxy)-ethyl]-pyrrolidin-1-yl}-(4-methanesulfonyl-piperazin-1-yl)-methanone]	64.7 nM
C[C@@H](Oc1ccc(F)cn1)[C@@H]1CN(C(=O)N2CCN(S(C)(=O)=O)CC2)C[C@H]1c1ccc(Cl)c(Cl)c1 (racemic) [Example 59, {(3RS,4SR)-3-(3,4-Dichloro-phenyl)-4-[(RS)-1-(5-fluoro-pyridin-2-yloxy)-ethyl]-pyrrolidin-1-yl}-(4-methanesulfonyl-piperazin-1-yl)-methanone]	12.6 nM
C[C@@H](Oc1ccc(Cl)cn1)[C@@H]1CN(C(=O)N2CCN3C(=O)CCC3C2)C[C@H]1c1ccc(Cl)c(Cl)c1 (mixture of isomers) [Example 62, 2-[(3SR,4RS)-3-[(RS)-1-(5-Chloro-pyridin-2-yloxy)-ethyl]-4-(3,4-dichloro-phenyl)-pyrrolidine-1-carbonyl]-hexahydro-pyrrolo[1,2-a]pyrazin-6-one]	24 nM
C[C@@H](Oc1ccc(Cl)cc1)[C@@H]1CN(C(=O)CN2CCC(CO)CC2)C[C@H]1c1ccc(Cl)c(Cl)c1 (racemic) [Example 67, 1-[(3SR,4RS)-3-[(RS)-1-(4-Chloro-phenoxy)-ethyl]-4-(3,4-dichloro-phenyl)-pyrrolidin-1-yl]-2-(4-hydroxymethyl-piperidin-1-yl)-ethanone]	53 nM
C[C@H](Oc1ccc(C(F)(F)F)cn1)[C@H]1CN(C(=O)N2CCN(S(C)(=O)=O)CC2)C[C@@H]1c1ccc(Cl)c(Cl)c1 (racemic) [Example 69, {(3SR,4RS)-3-(3,4-Dichloro-phenyl)-4-[(SR)-1-(5-trifluoromethyl-pyridin-2-yloxy)ethyl]-pyrrolidin-1-yl}-(4-methanesulfonyl-piperazin-1-yl)-methanone]	5.6 nM
C[C@H](Oc1ccc(C#N)cn1)[C@H]1CN(C(=O)CN2CCC(C#N)CC2)C[C@@H]1c1ccc(Cl)c(Cl)c1 (racemic) [Example 70, 6-{(SR)-1-[(3RS,4SR)-1-[2-(4-Cyano-piperidin-1-yl)-acetyl]-4-(3,4-dichloro-phenyl)-pyrrolidin-3-yl]-ethoxy}-nicotinonitrile]	86 nM
N-(1-{2-[(3SR,4RS)-[3-(RS)-1-(4-Chloro-phenoxy)-ethyl]-4-(3,4-dichloro-phenyl)-pyrrolidin-1-yl]-2-oxo-ethyl}-piperidin-4-yl)-N-methyl-acetamide [Example 65]	20 nM

Second part, the compound after the results:

Ki	Compound
93 nM	C[C@H](Oc1ccc(C(F)(F)F)cn1)[C@H]1CN(C(=O)N2CC3CC2CO3)C[C@@H]1c1ccc(Cl)c(Cl)c1 (mixture of isomers) [Example 73, {(3SR,4RS)-3-(3,4-Dichloro-phenyl)-4-[(SR)-1-(5-trifluoromethyl-pyridin-2-yloxy)-ethyl]-pyrrolidin-1-yl}-(2-oxa-5-aza-bicyclo[2.2.1]hept-5-yl)-methanone]
39 nM	C[C@@H](Oc1ccc(Cl)cn1)[C@@H]1CN(C(=O)N2CC3(COC3)C2)C[C@H]1c1ccc(Cl)c(Cl)c1 (racemic) [Example 61, [(3SR,4RS)-3-[(RS)-1-(5-Chloro-pyridin-2-yloxy)-ethyl]-4-(3,4-dichloro-phenyl)-pyrrolidin-1-yl]-(2-oxa-6-aza-spiro[3.3]hept-6-yl)-methanone]
27 nM	C[C@@H](Oc1ccc(Cl)cn1)[C@@H]1CN(C(=O)CN2CC3CC2CO3)C[C@H]1c1ccc(Cl)c(Cl)c1 (stereo partly drawn) [Example 68, 1-[(3S,4R)-3-[(R)-1-(5-Chloro-pyridin-2-yloxy)-ethyl]-4-(3,4-dichloro-phenyl)-pyrrolidin-1-yl]-2-(2-oxa-5-aza-bicyclo[2.2.1]hept-5-yl)-ethanone]
19 nM	CC(=O)NC1(c2ccccc2)CCN(CC(=O)N2C[C@@H]([C@@H](C)Oc3ccc(Cl)cc3)[C@H](c3ccc(Cl)c(Cl)c3)C2)CC1 (racemic) [Example 64, N-(1-{2-[(3SR,4RS)-3-[(RS)-1-(4-Chloro-phenoxy)-ethyl]-4-(3,4-dichloro-phenyl)-pyrrolidin-1-yl]-2-oxo-ethyl}-4-phenyl-piperidin-4-yl)-acetamide]
12 nM	CS(=O)(=O)N1CCN(C(=O)N2C[C@@H](COc3ccc(Cl)cn3)[C@H](c3ccc(Cl)c(Cl)c3)C2)CC1 (racemic) [Example 63]
11 nM	CC(=O)N1CCN(CC(=O)N2C[C@@H]([C@@H](C)Oc3ccc(Cl)cc3)[C@H](c3ccc(Cl)c(Cl)c3)C2)CC1 (racemic) [Example 66, 2-(4-Acetyl-piperazin-1-yl)-1-[(3SR,4RS)-3-[(RS)-1-(4-chloro-phenoxy)-ethyl]-4-(3,4-dichloro-phenyl)-pyrrolidin-1-yl]-ethanone]
8.7 nM	C[C@H](Oc1ccc(C#N)cn1)[C@H]1CN(C(=O)N2CCC(C#N)CC2)C[C@@H]1c1ccc(Cl)c(Cl)c1 (racemic) [Example 71]
2.6 nM	C[C@@H](Oc1ccc(Cl)cn1)[C@@H]1CN(C(=O)N2CCN(CCN(C)C)CC2)C[C@H]1c1ccc(Cl)c(Cl)c1 (racemic) [Example 56, [(3SR,4RS)-3-[(RS)-1-(5-Chloro-pyridin-2-yloxy)-ethyl]-4-(3,4-dichloro-phenyl)-pyrrolidin-1-yl]-[4-(2-dimethylamino-ethyl)-piperazin-1-yl]-methanone]
